Test results reported in patent US10814021B2, “Paramagnetic boron-doped graphene quantum dots and their application for safe magnetic resonance imaging” (priority 2017, dated 2020).
Entries after “also recorded” stand apart in the source; their conditions may differ.

How the values were obtained:
[1] = In vitro MR imaging (T1/T2 relaxivity) of SL-BGQDs and Gd-DTPA in PBS at 14 T; assay type: physicochemical; settings: SL-BGQDs per boron molar concentration
Procedure: To evaluate the applicability of using SL-BGQDs as contrast agents for MR imaging, quantitative T1 and T1-weighted MR imaging scan sequences were acquired of SL-BGQD samples in PBS at magnetic field strength of 14T. […] 1/T1 was then plotted against the boron molar concentration in SL-BGQDs (FIG. 13D).
T1- and T2-weighted imaging and quantitative T1 and T2 MR imaging scan sequences were used to investigate the contrast enhancing capabilities of SL-BGQDs. MR imaging was conducted on a Bruker Avance III 600 MHz, 14 T wide bore spectrometer. […] The vials were fixed in place inside a water reservoir; the water served as a homogeneous background signal to minimize magnetic susceptibility variations near samples. The secured vials were placed in a 25 mm single-channel ^1H radiofrequency receiving coil (PB Micro 2.5). […] Quantitative T2 values were measured using a multi-spin multi-echo (MSME) pulse sequence with TR=2500 ms, TE=6.7+6n ms (n=0-16), and 78×156 μm^2 in-plane resolution with 0.5 mm slice thickness for 14 slices. T1-weighted images were acquired with a RARE pulse sequence with TE=5.49 ms, TR=531 ms, 78×52 μm^2 in-plane resolution and 0.5 mm slice thickness for 10 slices. […] T1 values were determined within a circular, 100-voxel region of interest.

[2] = comparison values quoted in text; field not stated; cited from earlier work
[3] = system: C57BL/6 wild-type mice; assay: In vivo abdominal T1-weighted MR imaging, SL-BGQDs vs Gd-DTPA
Excerpt: T1-weighted MR images of the cross-sectional views of mice centered within the abdomen were acquired before and after contrast agent injection.
(§1) Mice were anesthetized with isoflurane (Piramal Healthcare) and secured in a coil-integrated respiratory monitoring system (SA Instruments; MR-compatible small animal monitoring and gating system) with nose-cone for oxygen/anesthetic, ear-bar head holder, circulating temperature control bath, and residual gas extraction. Abdominal scans were acquired using rapid acquisition with refocused echoes (RARE) T1-weighted (TR/TE=691/5.5 ms, in-plane resolution 93×62 μm^2, matrix 256×284) sequences and slices placed in the transverse plane with 0.5 mm slice thickness and 0.75 mm interslice gaps allowing for coverage from the liver to the pelvic floor. Cranial scans were acquired over the entire head with a 3-dimensional, T1-weighted fast low angle shot (FLASH) scan sequence (TR/TE=16.2/2.7 ms, resolution 106×108×152 μm^3, matrix 284×186×132). Images from this cranial scan sequence were processed using a maximum intensity projection with a 3 mm slab thickness.

[4] = system: C57BL/6 wild-type mice; assay: In vivo cranial T1-weighted MR imaging (neurovasculature), SL-BGQDs vs Gd-DTPA; settings: 10 min after i.v. 200 μL, 5 mg mL^−1
Excerpt: as §1

Structure (SMILES): O=C([O-])CN(CCN(CC(=O)[O-])CC(=O)O)CCN(CC(=O)[O-])CC(=O)O.[Gd+3] [Gd-DTPA, gadolinium diethylene penta-acetic acid]
- longitudinal relaxivity, r1 [1]: 4.3 mM⁻¹ s⁻¹
- r1 relaxivity of comparison T1 CAs [2]: 5.39 mM⁻¹ s⁻¹
- T1-weighted contrast enhancement in any organ at 60 min post-injection ([3]; 60 min post-injection, i.v. 200 μL, 1 mg mL^−1): completely nullified; also recorded: no T1-weighted signal increase was detected
- time of peak contrast enhancement post-injection ([3]; i.v. 200 μL, 1 mg mL^−1): ≤ 10 min
- signal enhancement in renal cortex, renal pelvis and gall bladder, post- vs pre-injection ([3]; i.v. 200 μL, 1 mg mL^−1, 14 T): substantial signal enhancement
- imaging time ([3]; summary statement): about 10 min
- contrast of cranial vasculature, post- vs pre-injection [4]: no apparent change in contrast
